Assay results as given in EP2550959A1 (priority 2011, dated 2013).
Where two headings read alike, the source gives them in different places.

Experiments:
[1] = molecular target: T1, 5-HT2B Rezeptoren von Schweinelungenarterien (Sus scrofa, UniProt F1SMV8); assay: Functional 5-HT2B receptor assay: 5-HT-induced relaxation of PGF2α-precontracted pig pulmonary arteries; format: biochemical, Schwein; details: conditions as in Beispiel 1
From the text: (§1) Dabei bedeutet der pA2 -Wert den negativ dekadischen Logarithmus der Konzentration eines Antagonisten, die es erforderlich macht, die Agonisten-Konzentration zu verdoppeln, um den Ausgangseffekt des Agonisten ohne Antagonisten wiederherzustellen.
Die vaskuläre Reaktion in Präparationen der Pulmonalarterien des Schweins, die mittels PGF2α vorkontrahiert waren, wurden als Assay für die spezifische Interaktion mit 5-HT2B-Rezeptoren verwendet (siehe Fig. 1A).

[2] = molecular target: 5-HT2A Rezeptoren von Schweineherzkranzarterien (Sus scrofa, UniProt P50129); assay: Functional 5-HT2A receptor assay: 5-HT-induced contraction of pig coronary arteries; format: biochemical, Schwein
5-HT2A Rezeptoren von Schweineherzkranzarterien, sequence (P50129 whole entry): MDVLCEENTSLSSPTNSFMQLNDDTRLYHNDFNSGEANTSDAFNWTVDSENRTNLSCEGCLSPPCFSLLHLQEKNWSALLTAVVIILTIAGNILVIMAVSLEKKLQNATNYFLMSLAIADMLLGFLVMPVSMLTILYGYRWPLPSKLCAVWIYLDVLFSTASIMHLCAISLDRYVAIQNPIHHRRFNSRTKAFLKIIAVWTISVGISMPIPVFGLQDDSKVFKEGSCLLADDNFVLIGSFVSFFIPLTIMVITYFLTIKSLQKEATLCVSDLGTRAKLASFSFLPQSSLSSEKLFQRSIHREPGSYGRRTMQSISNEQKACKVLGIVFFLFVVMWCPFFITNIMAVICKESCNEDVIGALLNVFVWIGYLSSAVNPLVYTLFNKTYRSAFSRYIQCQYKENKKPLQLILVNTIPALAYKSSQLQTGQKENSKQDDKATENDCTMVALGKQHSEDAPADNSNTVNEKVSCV
From the text: as §1

[3] = Antioxidative effect / uptake of oxygen radicals; format: physicochemical; details: per single molecule
From the text: Die massenspektroskopisch in der Mehrheit nachweisbaren Reaktionsprodukte enthalten 2 Sauerstoffatome; es lassen sich aber auch Verbindungen mit 3, 4 und 5 Sauerstoff-Atomen nachweisen.
Ein typisches Charakteristikum von Massenspektra ist, dass Gipfel von [M+H]++18, d. h. Zusatz von Wasser, oder [M+H]++16, d.h. Zusatz eines Sauerstoffatoms, gefunden werden, wie auch Kombinationen von Wasser und Sauerstoffatomen. Wegen der niedrigen in den Entnahmeproben enthaltenen Substanzmengen und der Kurzlebigkeit der Reaktionsprodukte war deren Isolierung zur Strukturaufklärung nicht möglich. Das Lisuridmolekül weist mehrere Positionen auf, an denen Wasser und/oder ein Sauerstoffatom gebunden werden können (Fig. 4).

[4] = Stability of lisuride dissolved in water (HPLC); details: room temperature, HPLC (Fig. 3A)
[5] = molecular target: T1, 5-HT2B Rezeptoren von Schweinelungenarterien; details: footnote d: from Glusa and Pertz, Brit. J. Pharmacol. 130, 692-698, 2000; cited from earlier work
[6] = test system: monocrotalin-induzierten Lungenhochdruck; assay: Monocrotaline-induced pulmonary hypertension in the rat; format: in vivo, Sprague-Dawley Ratten; details: days 15-28, mean ± SEM (N=6)
From the text: Monocrotalin (MCT) ist ein Toxin aus Pflanzen der Spezies Crotalaria, welches nach einer einzigen Injektion in Ratten die Endothelzellen der pulmonalen Arterien schädigt mit folgender Hypertrophie der glatten Gefässmuskulatur und persistierendem schwerem pulmonalem Hochdruck. Die MCTinduzierte pulmonale Hypertension der Ratte ist ein gut etabliertes und validiertes Modell der humanen pulmonalen Hypertension und alle heute zugelassenen Therapeutika haben eine Wirkung in diesem Modell gezeigt, zumindest wenn sie vor dem toxisch bedingten Gewebeumbau angewendet wurden.
MCT (60mg/kg) wurde bei männlichen Sprague-Dawley Ratten als Einzelinjektion subkutan verabreicht und ein gleiches Volumen isotonischer Kochsalzlösung bei den Kontrolltieren injiziert. […] Dabei wurde die genannte Dosis der jeweiligen Testsubstanz morgens und abends in einem Volumen von je 2.0 ml an Gruppen von jeweils 6 Tieren gegeben, die an Tag 1 des Experiments mit MCT behandelt worden waren. Die gleiche Menge Wasser wurde den Kontrolltieren zugeführt.
Am Tag 28 des Experiments, zwei Stunden nach letztmaliger Substanzgabe, wurden die Tiere narkotisiert unter Verwendung von Pentobarbital. Eine Tracheotomie wurde durchgeführt und die Tiere unter Isofluran-Anästhesie beatmet. Der mittlere arterielle Systemdruck und der systolische Druck im rechten Herzventrikel wurden gemessen. Nach den Druckmessungen wurden die Tiere mit physiologischer Kochsalzlösung perfundiert und die rechte Lunge wurde zur Bestimmung des Kollagengehalts entfernt.
Die sc-Injektion von MCT, wie oben beschrieben, führt zu einer schweren Schädigung des pulmonalen Gefässendothels sowie überschießender Produktion von Bindegewebe und Entwicklung einer pulmonalen Hypertonie. Anhäufung von Kollagen, gemessen als Hydroxyprolin-Gehalt des Lungengewebes, und Anstieg des rechtsventrikulären systolischen Drucks reflektieren die beschriebenen strukturellen und funktionalen Veränderungen. Die möglichen therapeutischen und präventiven Effekte von Lisurid bzw. Tergurid wurden in dem vorgestellten Modell der pulmonalen Hypertension gemessen. […]

[7] = test system: Menschliche glatte Muskelzellen mesenterialen Ursprungs; assay: 5-HT-stimulated proliferation of human smooth muscle cells (3H-thymidine uptake); format: cell-based; details: 10 µmol/l test substance, growth stimulated with 10-8 mol/l 5-HT; Fig. 2
From the text: Menschliche glatte Muskelzellen mesenterialen Ursprungs (Promo Cell) wurden entsprechend den Empfehlungen des Herstellers bis zur Bildung geschlossener Monolayers in 6 Platten mit PromoCell-Kulturmedium vermehrt und dann im gleichen Medium auf 24-Vertiefungsträgern für eine Zellzahl von 5x104 Zellen/Ansatz ausgesät. […] Zur Bestimmung des Zellwachstums wurde dann 3H-Thymidin (Amersham) zu den Zellkulturen hinzugegeben und diese für 24 Stunden inkubiert. Nach der Adhäsion der Zellen wurde das Kulturmedium durch ein Standardmedium mit 0.2% fetalem Kalbsserum zum Wachstumsstopp ersetzt und erneut 48 Stunden lang inkubiert.
Um antiproliferative Wirkungen der beschriebenen Substanzen zu testen, wurden die Zellkulturen dann zunächst mit einer Konzentration von 10 µmol/l der Prüfsubstanzen präinkubiert. […] Zur Messung des Wachstums der Zellen wurde dann 3H-Thymidin (Amersham) den Kulturen zugefügt und diese für 24 Stunden inkubiert. Danach erfolgten 2 Inkubationen in eisgekühlter Kochsalzlösung mit einem Phosphat-Puffer und danach 30 min Inkubation in eisgekühlter 10%iger Trichlor-Essigsäure bei 4°C. Die Zellen wurden dann in 0.1 molarer NaOH-Lösung inkubiert (0.5 ml/Inkubationsgefäss). Nach Neutralisierung mit Essigsäure wurde die 3H -Thymidin-Aufnahme mit Flüssig-Szintillation gemessen (als Dreifach-Bestimmung).

[8] = test system: 5-HT-induzierte Effekte; details: 2007], cited from earlier work

T1 sequence (F1SMV8 1-481): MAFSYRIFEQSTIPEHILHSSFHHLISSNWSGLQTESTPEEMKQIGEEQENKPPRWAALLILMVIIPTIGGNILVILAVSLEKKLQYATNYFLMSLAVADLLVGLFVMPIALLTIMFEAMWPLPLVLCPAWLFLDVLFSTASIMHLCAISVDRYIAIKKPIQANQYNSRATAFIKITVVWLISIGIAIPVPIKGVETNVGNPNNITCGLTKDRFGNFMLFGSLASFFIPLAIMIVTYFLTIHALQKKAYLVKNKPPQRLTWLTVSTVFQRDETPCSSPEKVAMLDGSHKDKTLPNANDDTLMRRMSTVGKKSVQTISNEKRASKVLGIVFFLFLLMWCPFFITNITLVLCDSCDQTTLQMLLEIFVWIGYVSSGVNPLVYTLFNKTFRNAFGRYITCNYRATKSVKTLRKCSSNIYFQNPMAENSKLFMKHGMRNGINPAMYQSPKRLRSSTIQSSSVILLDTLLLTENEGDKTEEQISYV

CCN(CC)C(=O)NC1C=C2c3cccc4[nH]cc(c34)CC2NC1 (stereo not drawn) [6-Norlisurid]
5-HT2B pA2 [1]: 8.39 ± 0.12
Kb [2]: 1.45 nM

CCN(CC)C(=O)NC1CNC2Cc3c[nH]c4cccc(c34)C2C1 (stereo not drawn) [6-Nortergurid]
5-HT2B pA2 [1]: 7.11 ± 0.08
Kb [2]: 14.1 nM

CCN(CC)C(=O)NC1CC2c3cccc4[nH]cc(c34)CC2N(C)C1 (stereo not drawn) [8β-Tergurid]
5-HT2B pA2 [1]: 8.39 ± 0.09
Kb [2]: 5.13 nM

CCN(CC)C(=O)N[C@H]1C=C2c3cccc4[nH]cc(c34)C[C@H]2N(C)C1 [Lisurid, 3-(9,10-didehydro-6-methylergoline-8alpha-yl)-1,1-diethylurea]
freie Sauerstoffradikale, die ein Molekül aufnehmen kann [3]: ≤ 6
Abbau von gelöstem Lisurid in Wasser [4]: schnell zu Produkten abgebaut

CCNC(=O)NC1C=C2c3cccc4[nH]cc(c34)CC2N(C)C1 (stereo not drawn) [N"-Monodesethyllisurid]
5-HT2B pA2 [1]: 8.08 ± 0.05
Kb [2]: 5.13 nM

CCNC(=O)NC1CC2c3cccc4[nH]cc(c34)CC2N(C)C1 (stereo not drawn) [N"-Monodesethyltergurid]
5-HT2B pA2 [1]: 7.30 ± 0.02
Kb [2]: 15.1 nM

Cc1cc(NC(=O)Nc2ccc3c(ccn3C)c2)sn1 [SB204741]
5-HT2B pA2 [5]: 6.59 ± 0.20^d

CCN(CC)C(=O)N[C@H]1C[C@@H]2c3cccc4[nH]cc(c34)C[C@H]2N(C)C1 [Tergurid, trans-Dihydrolisurid]
IC50 [2]: 0.372 nM
RVPsys ([6]; Monocrotaline (60 mg/kg s.c.) + 2.5 mg/kg bid by gavage): 39 ± 3 mmHG
SAP ([6]; Monocrotaline + 2.5 mg/kg bid, systemic arterial pressure): 111 ± 7 mmHG
Hydroxyproline ([6]; lung, Monocrotaline + 2.5 mg/kg bid): 2.7 ± 1.2 ug/g protein
Zellproliferation (3H -Thymidin-Aufnahme) [7]: Reduktion der Zellproliferation
freie Sauerstoffradikale, die ein Molekül aufnehmen kann [3]: ≤ 4
5-HT-induzierter Gewichtsanstieg von Herz und Leber ([8]; rat [Hauso O et al.): verhinderte
Verhaltensabnormalitäten und fibrotische Hautveränderungen an den Injektionsorten von 5-HT ([8]; rat [Hauso O et al.): unterdrückte
pulmonale Klappeninsuffizienz ([8]; rat, daily 5-HT over 4 months [Hauso O et al.): nicht nachweisbar

Oxtergurid
5-HT2B pA2 [1]: 6.42 ± 0.20
5-HT2A pA2 ([2]; pig coronary arteries, conditions as in Beispiel 1): 6.99 ± 0.04
